Test system: Plasmodium berghei
Experiment: Luciferase/luciferin-expressing antifolate-resistant parasites were used to infect a culture of HepG2 cells that were pre-incubated with compounds. Infected hepatocytes emit light due to the luciferase reaction. Assay results are presented as the percent inhibition of light emission compared to control. […]
Assay type: functional
Details: sporozoite; for IC90: read-out: LUCIFERASE INFECTION ASSAY - IC90
[1] = read-out: LUCIFERASE INFECTION ASSAY - IC50

Row | SMILES | IC90 | also measured
1 | O=C(CSc1nnc(-c2ccco2)o1)OCc1cc(F)cc2c1OC(c1ccccc1)OC2 (centres undefined) | 4.11 µM | IC50 (HEPG2TOX_HILL_SLOPE 2.76, 2.27, HEPG2TOX_R_SQUARED 0.916, 0.957, PBLUC_HILL_SLOPE 6.02, 15.8, PBLUC_R_SQUARED 0.479, 0.425, read-out: LUCIFERASE INFECTION ASSAY - IC50): 3.17 µM
2 | COc1ccc(NC(=O)c2cccc3c[nH]nc23)cc1Cc1ccccc1 | 9.56 µM | IC50 (PBLUC_HILL_SLOPE 1.42, PBLUC_R_SQUARED 0.679, read-out: LUCIFERASE INFECTION ASSAY - IC50): 2.02 µM
3 | Cc1cccc(OCc2nnnn2-c2ccc(Br)cc2)c1 | > 9.56 µM | IC50 [1]: > 9.56 µM
4 | O=C(Nc1nc2ccc(Oc3ccccc3)cc2s1)c1ccoc1 | > 10 µM | IC50 (HEPG2TOX_HILL_SLOPE 2.54, HEPG2TOX_R_SQUARED 0.824, PBLUC_HILL_SLOPE 3.93, PBLUC_R_SQUARED 0.329, read-out: LUCIFERASE INFECTION ASSAY - IC50): 7.66 µM
5 | CC(C)Oc1ccc(Nc2cc3c(cn2)cc(-c2cccc(C(F)(F)F)c2)n3C)cc1 | 5.18 µM | IC50 (PBLUC_HILL_SLOPE 8.74, PBLUC_R_SQUARED 0.3, read-out: LUCIFERASE INFECTION ASSAY - IC50): 4.03 µM
6 | COc1ccc2cc(/C(C)=N/OC(=O)Nc3cc(Cl)cc(Cl)c3)ccc2c1 | 8.12 µM | IC50 [1]: 4.08 µM
7 | CC(=O)c1cccc(-c2cnc3ccc(-c4cccc(N)c4)nn23)c1 | 3.85 µM | IC50 (HEPG2TOX_HILL_SLOPE 0.765, HEPG2TOX_R_SQUARED 0.894, PBLUC_HILL_SLOPE 1.06, PBLUC_R_SQUARED 0.553, read-out: LUCIFERASE INFECTION ASSAY - IC50): 0.481 µM
8 | O=C(c1cn(-c2ccccc2)nc1-c1cccs1)N1c2ccccc2CCc2ccccc21 | > 10 µM | IC50 (FFLUC_HILL_SLOPE 15.3, FFLUC_R_SQUARED 0.476, HEPG2TOX_HILL_SLOPE 1.99, HEPG2TOX_R_SQUARED 0.329, PBLUC_HILL_SLOPE 2.58, PBLUC_R_SQUARED 0.689, read-out: LUCIFERASE INFECTION ASSAY - IC50): 6.76 µM
9 | Cc1ccc(-c2cs/c(=N\CCN3CCOCC3)n2/N=C/c2cccs2)cc1C | > 10 µM | IC50 (HEPG2TOX_HILL_SLOPE 0.856, HEPG2TOX_R_SQUARED 0.317, read-out: LUCIFERASE INFECTION ASSAY - IC50): > 10 µM
10 | CCN(Cc1cccc(F)c1)C(=O)Nc1ccccc1-n1nc(C)cc1C | > 10 µM | IC50 [1]: > 10 µM
11 | OC[C@H]1O[C@@H](c2nc(-c3ccc4c(c3)CCO4)no2)[C@H](O)[C@@H]1O | > 10.3 µM | IC50 [1]: > 10.3 µM
12 | Cc1ccc(Oc2cccc(F)c2C#N)cc1 | > 14.5 µM | IC50 [1]: > 14.5 µM
13 | CCCCn1c(SCc2cc(=O)oc3cc(C)c(C(C)C)cc23)nc2cc(S(N)(=O)=O)ccc21 | > 10 µM | IC50 [1]: > 10 µM
14 | O=C(NCc1ccc(-c2cccs2)s1)c1ccc([N+](=O)[O-])o1 | > 9.87 µM | IC50 (HEPG2TOX_HILL_SLOPE 1.96, HEPG2TOX_R_SQUARED 0.945, PBLUC_HILL_SLOPE 1.03, PBLUC_R_SQUARED 0.326, read-out: LUCIFERASE INFECTION ASSAY - IC50): > 9.87 µM
15 | COc1cc(OC)cc(C(NS(=O)(=O)c2cc(C(F)(F)F)ccc2Cl)c2nccn2C)c1 (centres undefined) | > 10 µM | IC50 (PBLUC_HILL_SLOPE 9.29, PBLUC_R_SQUARED 0.399, read-out: LUCIFERASE INFECTION ASSAY - IC50): 8.07 µM
16 | CCCCn1c(C(C)Oc2ccc(Cl)cc2Cl)nc2cc(S(N)(=O)=O)ccc21 (centres undefined) | 0.529 µM | IC50 [1]: 0.233 µM
17 | CCc1ccccc1Nc1nc(N)nc(CN2CCc3ccccc32)n1 | > 10 µM | IC50 (PBLUC_HILL_SLOPE 1.23, PBLUC_R_SQUARED 0.247, read-out: LUCIFERASE INFECTION ASSAY - IC50): 5.31 µM
18 | OCc1ccc(-c2cnc3ccc(-c4ccc(F)cc4)nn23)cc1 | 5.21 µM | IC50 (HEPG2TOX_HILL_SLOPE 1.97, HEPG2TOX_R_SQUARED 0.914, PBLUC_HILL_SLOPE 1.12, PBLUC_R_SQUARED 0.781, read-out: LUCIFERASE INFECTION ASSAY - IC50): 0.738 µM
19 | COc1ccc(COC(=O)c2sc3nc4n(c(=O)c3c2C)CCC4)cc1F | > 10 µM | IC50 (PBLUC_HILL_SLOPE 15.9, PBLUC_R_SQUARED 0.0512, read-out: LUCIFERASE INFECTION ASSAY - IC50): 9.36 µM
20 | O=C1C(=O)N(Cc2ccncc2)c2ccccc21 | > 13.9 µM | IC50 (PBLUC_HILL_SLOPE 4.07, PBLUC_R_SQUARED 0.778, read-out: LUCIFERASE INFECTION ASSAY - IC50): 8.1 µM
21 | OCc1cccc(-c2cnc3ccc(-c4cccc(OC(F)(F)F)c4)nn23)c1 | 4.21 µM | IC50 (HEPG2TOX_HILL_SLOPE 8.38, HEPG2TOX_R_SQUARED 0.945, PBLUC_HILL_SLOPE 12.7, PBLUC_R_SQUARED 0.452, read-out: LUCIFERASE INFECTION ASSAY - IC50): 3.54 µM

Row | SMILES | IC90 | also measured
22 | CCCCN(C)S(=O)(=O)c1ccc(NC(=O)c2cccc(C(F)(F)F)c2)cc1 | > 10 µM | IC50 (PBLUC_HILL_SLOPE 3.75, PBLUC_R_SQUARED 0.618, read-out: LUCIFERASE INFECTION ASSAY - IC50): 5.87 µM
23 | CSc1sc(Br)c2c1/C(=N\O)CC(C)(C)C2 | > 10.3 µM | IC50 [1]: > 10.3 µM
24 | Cc1cc(C)nc(NNC(=S)NC(=O)C23CC4CC(CC(C4)C2)C3)n1 | 3.62 µM | IC50 (HEPG2TOX_HILL_SLOPE 2.34, HEPG2TOX_R_SQUARED 0.811, PBLUC_HILL_SLOPE 12, PBLUC_R_SQUARED 0.36, read-out: LUCIFERASE INFECTION ASSAY - IC50): 3.01 µM
25 | O=C(Nc1ccccc1Nc1cc(-c2ccccc2)nn1-c1ccccc1)c1ccc([N+](=O)[O-])cc1 | > 10 µM | IC50 (PBLUC_HILL_SLOPE 1.78, PBLUC_R_SQUARED 0.355, read-out: LUCIFERASE INFECTION ASSAY - IC50): 8.66 µM
26 | CC(C)c1nc2cc(NC(=O)CSc3nnnn3C3CC3)ccc2o1 | > 10 µM | IC50 (PBLUC_HILL_SLOPE 2.34, PBLUC_R_SQUARED 0.391, read-out: LUCIFERASE INFECTION ASSAY - IC50): 3.99 µM
27 | Cc1ccc(O)c(/C=N/NC(=S)NC(C)(C)C)c1 | > 12.4 µM | IC50 (PBLUC_HILL_SLOPE 24.9, PBLUC_R_SQUARED 0.247, read-out: LUCIFERASE INFECTION ASSAY - IC50): 11.8 µM
28 | CC(C)(C)Nc1ncnc2sc(-c3ccccc3)cc12 | > 10 µM | IC50 (PBLUC_HILL_SLOPE 1.75, PBLUC_R_SQUARED 0.697, read-out: LUCIFERASE INFECTION ASSAY - IC50): 4.97 µM
29 | Cc1[nH]n(-c2cccc(C(F)(F)F)c2)c(=O)c1-c1cccc(Cl)c1 | > 9.36 µM | IC50 (HEPG2TOX_HILL_SLOPE 5.8, HEPG2TOX_R_SQUARED 0.928, PBLUC_HILL_SLOPE 3.11, PBLUC_R_SQUARED 0.843, read-out: LUCIFERASE INFECTION ASSAY - IC50): 6.26 µM
30 | NC(=O)C1CCN(C(=O)CCn2c(=O)oc3ccccc32)CC1 | > 10 µM | IC50 [1]: > 10 µM
31 | CC(=O)Nc1ccc(OC(=O)c2cc(C(C)(C)C)nn2Cc2c(C)cc(C)cc2C)cc1 | 3.69 µM | IC50 (FFLUC_HILL_SLOPE 42.8, FFLUC_R_SQUARED 0.589, PBLUC_HILL_SLOPE 8.27, PBLUC_R_SQUARED 0.64, read-out: LUCIFERASE INFECTION ASSAY - IC50): 2.83 µM
32 | Cc1cc(NC(=O)c2cc(-c3ccc(Br)cc3)nc3ccccc23)n(-c2ccc([N+](=O)[O-])cc2)n1 | 1.17 µM | IC50 (HEPG2TOX_HILL_SLOPE 1.65, HEPG2TOX_R_SQUARED 0.917, PBLUC_HILL_SLOPE 13.2, PBLUC_R_SQUARED 0.485, read-out: LUCIFERASE INFECTION ASSAY - IC50): 0.991 µM
33 | COc1ccc(-c2nnc(SC(C)C(=O)NC(C)c3ccc(Cl)cc3Cl)[nH]2)cc1 (centres undefined) | > 10 µM | IC50 (PBLUC_HILL_SLOPE 2.09, PBLUC_R_SQUARED 0.0748, read-out: LUCIFERASE INFECTION ASSAY - IC50): 5.53 µM
34 | CC(=O)Nc1ccc(OCC(=O)NC(c2ccc(C)cc2)c2cccs2)cc1 (centres undefined) | > 10 µM | IC50 (PBLUC_HILL_SLOPE 2.22, PBLUC_R_SQUARED 0.0478, read-out: LUCIFERASE INFECTION ASSAY - IC50): > 10 µM
35 | FC(F)(F)c1ccccc1N/N=C/c1ccc(OCc2ccccc2)c(OCc2ccccc2)c1 | > 10 µM | IC50 (FFLUC_HILL_SLOPE 10.4, FFLUC_R_SQUARED 0.371, read-out: LUCIFERASE INFECTION ASSAY - IC50): > 10 µM
36 | Cc1nc(COc2ccc(F)cc2)sc1C(=O)Nc1nc2c(s1)CC(C)CC2 (centres undefined) | > 10 µM | IC50 [1]: > 10 µM
37 | CC1CCN(S(=O)(=O)c2ccc(C(=O)NCc3cccc(C(F)(F)F)c3)cc2)CC1 | > 10 µM | IC50 (FFLUC_HILL_SLOPE 13.2, FFLUC_R_SQUARED 0.207, read-out: LUCIFERASE INFECTION ASSAY - IC50): > 10 µM
38 | O=C(Nc1ccc(Cl)cc1)c1cc(-c2ccccc2)c(C(F)(F)F)s1 | 6.06 µM | IC50 (HEPG2TOX_HILL_SLOPE 3.44, HEPG2TOX_R_SQUARED 0.918, PBLUC_HILL_SLOPE 6.48, PBLUC_R_SQUARED 0.174, read-out: LUCIFERASE INFECTION ASSAY - IC50): 4.32 µM
39 | O=C(CN1C(=O)S/C(=C\c2ccco2)C1=O)c1ccc([N+](=O)[O-])cc1 | > 10 µM | IC50 (HEPG2TOX_HILL_SLOPE 0.122, HEPG2TOX_R_SQUARED 0.0589, read-out: LUCIFERASE INFECTION ASSAY - IC50): > 10 µM
40 | CCc1sc(C(=O)Nc2cnc3ccccc3c2)cc1C | > 10 µM | IC50 (HEPG2TOX_HILL_SLOPE 1.13, HEPG2TOX_R_SQUARED 0.365, PBLUC_HILL_SLOPE 0.275, PBLUC_R_SQUARED 0.613, read-out: LUCIFERASE INFECTION ASSAY - IC50): 0.46 µM
41 | COc1cccc(-c2nccc3n[nH]c(-c4ccc(OC)cc4C)c23)c1 | > 10 µM | IC50 [1]: 4.5 µM
42 | CN(Cc1ccc(OCc2ccc(Cl)cc2)cc1)C(=O)c1cnn(C)c1 | > 10 µM | IC50 [1]: > 10 µM
